# Legend:
# TSPO [1] = molecular target: TSPO; design: method as in PMID 19948230; conditions: literature value ref 25; cited from earlier work
# CBR = test: In vitro CBR binding, displacement of [3H]flunitrazepam; design: species or system rat; conditions: for Ki: displacement of [3H]flunitrazepam from rat cerebrocortical samples, mean of three experiments in duplicate
# Protocol: Binding affinity and selectivity to the 18-kDa translocator protein TSPO and to CBR were assessed using in vitro receptor binding assays. These experiments were carried out as described by Denora et al[34].
# TSPO [2] = molecular target: T1, TSPO (Rattus norvegicus, UniProt P16257); conditions: ratio of Ki values, higher affinity of CB251
# TSPO [3] = molecular target: T1, TSPO; test: biochemical
# T1 sequence (P16257 whole entry): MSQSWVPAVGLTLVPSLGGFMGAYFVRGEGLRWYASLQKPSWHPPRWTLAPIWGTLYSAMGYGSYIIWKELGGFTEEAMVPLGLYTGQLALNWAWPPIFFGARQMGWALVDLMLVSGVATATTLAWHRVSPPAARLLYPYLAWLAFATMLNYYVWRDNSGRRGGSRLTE
compound,measurement,setting,value
COc1ccccc1CN(C(C)=O)c1cnccc1Oc1ccccc1 [PBR28],Ki,TSPO [1],6.1 ± 6.4 nM
"CCC(C)N(C)C(=O)c1cc2ccccc2c(-c2ccccc2Cl)n1 (centres unmarked) [PK 11195, reference compound]",Ki,CBR,> 100000 nM
"CCCN(CCC)C(=O)Cc1c(-c2ccc(OCCF)cc2)nc2c(Cl)cc(Cl)cn12 [CB251, 2-(2-(4-(2-Fluoroethoxy)phenyl)-6,8-dichloroimidazo[1,2-a]pyridin-3-yl)-N,N-dipropylacetamide]",Ki,CBR,> 100000 nM
same,binding to CBR,CBR; result in words,below the detection limit
same,TSPO binding affinity relative to PK 11195,TSPO [2],5 times
same,TSPO binding affinity relative to PBR28,TSPO [2]; PBR28 Ki from ref 25,22 times
same,Ki,TSPO [3],0.27 ± 0.09 nM
"CN1C(=O)CN=C(c2ccccc2F)c2cc([N+](=O)[O-])ccc21 [flunitrazepam, reference compound]",Ki,CBR,5.11 ± 0.87 nM

# Source: article PMC4745082, “A Novel PET Imaging Probe for the Detection and Monitoring of Translocator Protein 18 kDa Expression in Pathological Disorders” (Scientific Reports, 2016)
